# System: Mycobacterium tuberculosis
# Test: Antimycobacterial activity against Mycobacterium tuberculosis
# Format: functional
# Conditions: not given
row,Structure (SMILES),MIC
1,C[C@@H]1C[C@H](C)C(=O)/C=C/C2[C@@H](O)C3OC4=C(C(=O)O[C@@]42C[C@H]3C)C1=O (stereo in doubt; 208),8.3 µg/mL
2,CC(=O)OC[C@H]1O[C@@H](Oc2cccc3c2C(=O)c2c(O)cc(C)cc2C3=O)[C@H](O)[C@@H](O)[C@@H]1O,4.1 µM
3,COc1cccc2c1C(=O)c1nccc3cc4c(c-2c13)OCO4 [OXOSTEPHANINE],50 µg/mL
4,CC(=O)c1c(C)cc2cccc(O[C@@H]3O[C@H](CO)[C@@H](O)[C@H](O)[C@H]3O)c2c1O,26.6 µM
5,COc1c(O)cc2oc3cc(O)c(CC=C(C)C)c(O)c3c(=O)c2c1CC=C(C)C [MANGOSTIN],15.2 µg/mL
6,O=C1c2ccccc2-c2c3c(cc4ccnc1c24)OCO3 [LIRIODENINE],12.5 µg/mL
7,CC(C)[C@]12C=C3CC[C@H]4[C@](C)(C(=O)O)CCC[C@]4(C)[C@]3(CC1)OO2,50 µg/mL
8,O=C(CCCCCCCCCCCC[C@H]1C=CCC1)OCC(O)CO (some centres undefined) [ANTHELMINTHICINS C],11.3 µM
9,COc1cc(O)c2c(O)c(C(C)=O)c(C)cc2c1 [TORACHRYSONE],6.1 µM
10,COc1c(O)cc2c(c1CC=C(C)C)C(=O)c1c(cc(OS(=O)(=O)O)c(CC=C(C)C)c1O)C2,6.75 µM
11,CC(C)C(O)C(=O)N/C=C\C=C/NC(=O)C(O)C(C)C (centres undefined) [PHOMOENAMIDE],6.25 µg/mL
12,CC(C)(O)c1ccc2c(c1)CC[C@H]1[C@](C)(C(=O)O)CCC[C@]21C,50 µg/mL
13,COc1cc(O[C@@H]2O[C@H](CO)[C@@H](O)[C@H](O)[C@H]2O)c2c(O)c(C(C)=O)c(C)cc2c1,8.9 µM
14,C/C=C/C(=O)OC[C@H]1O[C@@H](Oc2cccc3cc(C)c(C(C)=O)c(O)c23)[C@H](O)[C@@H](O)[C@@H]1O [RUMEXNEPOSIDE A],20.7 µM
15,C=C[C@@]1(C)C=C2CC[C@@H]3[C@](C)(CCC[C@@]3(C)C(=O)O)[C@H]2CC1 [PIMARIC ACID],50 µg/mL

# System: Mycobacterium tuberculosis
# Test: Antimycobacterial activity against Mycobacterium tuberculosis H37Ra
# Format: functional
# Conditions: not given
row,Structure (SMILES),MIC
1,COc1c(-c2ccccc2)oc2c3c(ccc2c1=O)OC(C)(C)C=C3 [KARANJACHROMENE],12.5 µg/mL
2,O=Cc1cc2c(cc1O)[nH]c1cc(O)ccc12 [CLAUSINE O],25 µg/mL
3,CCCCC/C=C/C=C/C(=O)N1CCCC1 [SARMENTINE],50 µg/mL
4,CO[C@H]1CC(=O)c2c(O)cccc2[C@H]1O,12.5 µg/mL
5,COc1cc2c(cc1OC)-c1c3c(cc4c1[C@@H](C2)NCC4)OCO3,12.5 µg/mL
6,COc1ccc(C/C=C/c2ccc(O)cc2)c(OC)c1O [DALPARVINENE],50 µg/mL
7,CC1(C)C=Cc2c(cc3oc(CO)cc(=O)c3c2O)O1 [GREVEICHROMENOL],50 µg/mL
8,CCCC/C=C/C#CC#CC(C)CCCCCCC(=O)O (centres undefined),25 µg/mL
9,C=C(C)C(=O)O[C@H]1C[C@@]2(C)OC(=CC2=O)C(=C)[C@@H](O)[C@H]2OC(=O)C(=C)[C@@H]21 [ISOGOIAZENSOLIDE],1.5 µg/mL
10,O=C(/C=C/CCCC/C=C/c1ccc2c(c1)OCO2)N1CCCC1 [BRACHYAMIDE B],50 µg/mL
11,CCc1c(OC)cc2c(c1O)C(=O)C=C(OC)C2=O,12.5 µg/mL
12,COC(=O)/C=C/c1ccc(O)c(O)c1 [METHYLCAFFEATE],25 µg/mL
13,CC(C)CNC(=O)/C=C/C=C/CCCCCCCC/C=C/c1ccc2c(c1)OCO2 [BRACHYSTAMIDE B],50 µg/mL
14,O=C(CCCCCCCCc1ccccc1)c1c(O)cccc1O [MALABARICONE A],25 µg/mL
15,C=C1C(=O)O[C@H]2[C@H]1[C@@H](OC(=O)/C(C)=C\C)C[C@@]1(C)OC(=CC1=O)C(=C)[C@H]2O [ISOCENTRATHERIN],3.1 µg/mL
16,"COc1ccc2c(=O)c(OC)c(-c3ccccc3)oc2c1 [3,7-DIMETHOXYFLAVONE]",50 µg/mL
17,CCCCC/C=C/C=C/C(=O)NCC(C)C [PELLITORIN],50 µg/mL
18,C/C=C(\C)C(=O)C1=C2C3=COC(/C=C/[C@@H](C)CC)=CC3=C(Cl)C(=O)[C@@]2(C)OC1=O [CHAETOVIRIDIN E],50 µg/mL
19,NC(=O)c1cnccn1 [PYRAZINAMIDE],810 µM
20,CC(C)=CCOc1ccc(C[C@@H]2NC(=O)[C@H](C(C)C)N(C)C(=O)[C@H](CO)NC(=O)[C@@H]3CCCN3C(=O)[C@@H](Cc3ccccc3)OC(=O)[C@H](C)N(C)C2=O)cc1 [PULLULARIN C],50 µg/mL

row,Structure (SMILES),MIC
1,CC(=O)O[C@@H]1C[C@H]2C(C)(C)C(=O)C=C[C@]2(C)[C@H]2CC[C@]3(C)C(=CC(=O)[C@H]3c3ccoc3)[C@@]21C [AZADIRADIONE],6.25 µg/mL
2,O=c1cc(-c2ccccc2)oc2c1ccc1occc12 [LANCEOLATIN B],50 µg/mL
3,COc1ccc2c(=O)c3c(oc2c1)-c1cc2c(cc1CO3)OCO2,6.25 µg/mL
4,COc1cc2oc(C)cc(=O)c2c(O)c1CC=C(C)C,50 µg/mL
5,C=C(C)CC(O)c1c(OC)cc(O)c2c(=O)cc(C)oc12 (centres undefined) [PERFORAMONE B],25 µg/mL
6,C=C(C)C(=O)O[C@H]1C[C@@]2(C)OC(=CC2=O)C(=C)[C@H](O)[C@H]2OC(=O)C(=C)[C@@H]21,3.1 µg/mL
7,COc1ccc([C@@]23Oc4cc(OC)cc(OC)c4[C@@](O)(C2O)[C@@H](C(=O)NCCCCNC(=O)c2ccccc2)[C@@H]3c2ccccc2)cc1 (some centres undefined),25 µg/mL
8,C=C1C(=O)O[C@@H]2/C=C(/CO)C3=CC(=O)[C@@](C)(C[C@H](OC(=O)/C(C)=C\C)[C@@H]12)O3 [CENTRATHERIN],3.1 µg/mL
9,CCCC/C=C/C#CC#CCCCCCCCC(=O)OCC(O)CO (centres undefined),25 µg/mL
10,O=C1C=C[C@@H]2O[C@H](c3ccccc3)[C@@H](O)[C@@H]2O1 [ALTHOLACTONE],6.25 µg/mL
11,CC(=O)O[C@@H]1C[C@H]2C(C)(C)C(=O)C=C[C@]2(C)[C@H]2CC[C@@]3(C)[C@H](c4ccoc4)C(=O)[C@H]4O[C@]43[C@@]21C [EPOXYAZADIRADIONE],25 µg/mL
12,Oc1ccc2c(c1)OC[C@H]1c3cc4c(cc3O[C@@H]21)OCO4 [MAACKIAIN],50 µg/mL
13,CCOC(=O)/C=C/c1ccc(OC)cc1 [4-METHOXY ETHYL CINNAMATE],485 µM
14,COc1cc(OC)c(-c2coc3cc(O)cc(O)c3c2=O)cc1O [DALPARVONE],50 µg/mL
15,C=C1C(=O)O[C@@H]2/C=C(/CO)C3=CC(=O)[C@@](C)(C[C@H](OC(=O)/C(C)=C/C)[C@@H]12)O3 [LYCHNOPHOROLIDE B],6.2 µg/mL
16,C=C1C(=O)O[C@H]2[C@H]1[C@@H](OC(=O)/C(C)=C\C)C[C@@]1(C)OC(=CC1=O)C(=C)[C@@H]2O,3.1 µg/mL
17,CC1(C)C=Cc2c(cc(O)c3c(=O)cc(CO)oc23)O1 [PERFORAMONE D],25 µg/mL
18,C=C(C)C(=O)O[C@H]1C[C@@]2(C)OC(=CC2=O)/C(CO)=C\[C@H]2OC(=O)C(=C)[C@H]12 [GOIAZENSOLIDE],3.1 µg/mL
19,C=C1C(=O)O[C@@H]2/C=C(\C(=O)O)CC/C=C(\C)CC[C@@H]12,50 µg/mL
20,O=C(/C=C/C=C/CC/C=C/c1ccc2c(c1)OCO2)N1CCCC1,25 µg/mL

# System: Mycobacterium tuberculosis
# Test: Antimycobacterial activity against Mycobacterium tuberculosis H37Rv ATCC 27294
# Format: functional
# Conditions: not given
row,Structure (SMILES),MIC
1,CSCCC(NC(=O)NC(Cc1c[nH]c2ccccc12)C(=O)O)C(=O)NC(C(=O)N/C=C1\C[C@@H](O)[C@H](n2ccc(=O)[nH]c2=O)O1)C(C)N(C)C(=O)C1Cc2cc(O)ccc2C(C)(C)N1 (some centres undefined) [SANSANMYCIN F],16 µg/mL
2,CC1COc2c(N3CCN(C)CC3)c(F)cc3c(=O)c(C(=O)O)cn1c23 (centres undefined) [OFLOXACIN],0.125 µg/mL
3,CSSc1cccc[n+]1[O-],1.25 µg/mL
4,C/C(=C\CO)CCCC(C)CCCC(C)CCCC(C)C (centres undefined),1.56 µg/mL
5,CCCOC(=O)[C@]12CC[C@@]3(C)C[C@H]4O[C@@]4(C)[C@H]4O[C@H]4[C@H]3[C@@H]1CC[C@@H]2C(C)C,6.25 µg/mL
6,CC(C)CC(NC(=O)NC(Cc1c[nH]c2ccccc12)C(=O)O)C(=O)NC(C(=O)N/C=C1\C[C@@H](O)[C@H](n2ccc(=O)[nH]c2=O)O1)C(C)N(C)C(=O)C1Cc2cc(O)ccc2C(C)(C)N1 (some centres undefined) [SANSANMYCIN G],16 µg/mL
7,CCC1C=CCC[C@@]2(C[C@@H]3CC[C@@H]4[C@H](C(=O)OCCCCCCCCCCCCCCCC(=O)N(CCCN)C[C@@H](O)CCN)[C@]5(CCC[C@@H](C)O5)NC(=N2)N34)O1 (some centres undefined),46.5 µg/mL
8,CCCCCCC[C@H]1C[C@H]2CCC3=C(C(=O)OCCCCNC(=N)N)C(CCCCC)N=C(N1)N32 (some centres undefined),34.7 µg/mL
9,CCCCCCC[C@H]1C[C@H]2CCC3=C(C(=O)OCCCCNC(=N)N)C(CCCCC)=NC(=N1)N32,37.7 µg/mL
10,CCCCCCC[C@@H]1C[C@@H]2CCC3=C(C(=O)OC(C)CCCCCCC[C@@H]4C[C@@H]5CC[C@@H]6C[C@H](C)NC(=N4)N65)C(C)N=C(N1)N32 (some centres undefined) [BATZELLADINE N],3.18 µg/mL
11,CCCCCCC[C@@H]1C[C@@H]2CCC3=C(C(=O)OCCCCCCC[C@@H]4C[C@@H]5CC[C@@H]6C[C@H](C)NC(=N4)N65)C(C)N=C(N1)N32 (some centres undefined),28.5 µg/mL
12,CSCCC(NC(=O)NC(Cc1c[nH]c2ccccc12)C(=O)O)C(=O)NC(C(=O)N/C=C1\C[C@@H](O)[C@H](n2ccc(=O)[nH]c2=O)O1)C(C)N(C)C(=O)C(N)Cc1cccc(O)c1 (some centres undefined) [SANSANMYCIN A],16 µg/mL
13,CCCCCCCCC[C@@H]1C[C@@H]2CC[C@H]3[C@@H](C(=O)OC(C)CCCCCCC[C@@H]4C[C@@H]5CC[C@@H]6C[C@H](C)NC(=N4)N65)[C@@H](C)N=C(N1)N23 (some centres undefined) [BATZELLADINE L],1.68 µg/mL

# System: Mycobacterium tuberculosis
# Test: Antimycobacterial activity against Mycobacterium tuberculosis isolate CIBIN/UMF 15:19
# Format: functional
# Conditions: not given
row,Structure (SMILES),MIC
1,CC1COc2c(N3CCN(C)CC3)c(F)cc3c(=O)c(C(=O)O)cn1c23 (centres undefined) [OFLOXACIN],0.125 µg/mL
2,CCCOC(=O)[C@]12CC[C@@]3(C)C[C@H]4O[C@@]4(C)[C@H]4O[C@H]4[C@H]3[C@@H]1CC[C@@H]2C(C)C,6.25 µg/mL

# System: Mycobacterium tuberculosis
# Test: Antimycobacterial activity against Mycobacterium tuberculosis H37Rv
# Format: functional
# Conditions: not given
row,Structure (SMILES),MIC
1,C[C@@H]1C[C@H](C)C(=O)/C=C/C2[C@@H](O)C3OC4=C(C(=O)O[C@@]42C[C@H]3C)C1=O (stereo in doubt; 208),3.6 µM

# Same assay, conditions: Mycobacterium tuberculosis, H37Rv; read-out: MIC
row,Structure (SMILES),MIC
1,O=C(CCCCCCCCCCCC[C@H]1C=CCC1)OCC(O)CO (some centres undefined) [ANTHELMINTHICINS C],4.38 µM
2,NC(=O)c1cnccn1 [PYRAZINAMIDE],810 µM
3,CCOC(=O)/C=C/c1ccc(OC)cc1 [4-METHOXY ETHYL CINNAMATE],242 µM
